Experimental data from ChEMBL document CHEMBL1201862, “PubChem BioAssay data set” (2004).
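Each compound was tested at five concentrations against cells in 96-well plates for 48 hours. GI50 = concentration required for 50% inhibition of growth.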 Calls of active or inactive are those of the source. Rule as the data show it: active = GI50 up to about 1.1 µM and inactive = higher.

Key:
Experiment in all cases: NCI-60 cell line screen, 48 h
SN12C = tested on: SN12C
HCC 2998 = tested on: HCC 2998
T47D = tested on: T47D
K562 = tested on: K562
SR = tested on: SR
NCI-H460 = tested on: NCI-H460
A498 = tested on: A498
TK-10 = tested on: TK-10
SK-MEL-28 = tested on: SK-MEL-28
U-251 = tested on: U-251
OVCAR-4 = tested on: OVCAR-4
NCI-H23 = tested on: NCI-H23
MDA-N = tested on: MDA-N
786-0 = tested on: 786-0
ACHN = tested on: ACHN
RPMI-8226 = tested on: RPMI-8226
PC-3 = tested on: PC-3
HCT-15 = tested on: HCT-15
LOX IMVI = tested on: LOX IMVI
Hs-578T = tested on: Hs-578T
NCI-H226 = tested on: NCI-H226
BT-549 = tested on: BT-549
HT-29 = tested on: HT-29
NCI/ADR-RES = tested on: NCI/ADR-RES
UO-31 = tested on: UO-31
HCT-116 = tested on: HCT-116
SK-MEL-5 = tested on: SK-MEL-5
A549 = tested on: A549
DU-145 = tested on: DU-145
SF-268 = tested on: SF-268
MDA-MB-435 = tested on: MDA-MB-435
SK-MEL-2 = tested on: SK-MEL-2
COLO 205 = tested on: COLO 205
SNB-19 = tested on: SNB-19
KM12 = tested on: KM12
HOP-92 = tested on: HOP-92
UACC-62 = tested on: UACC-62
MDA-MB-231 = tested on: MDA-MB-231
CAKI-1 = tested on: CAKI-1
SW-620 = tested on: SW-620
UACC-257 = tested on: UACC-257
SNB-75 = tested on: SNB-75
OVCAR-8 = tested on: OVCAR-8
IGROV-1 = tested on: IGROV-1
SF-295 = tested on: SF-295
MCF7 = tested on: MCF7
OVCAR-3 = tested on: OVCAR-3
SK-OV-3 = tested on: SK-OV-3
MOLT-4 = tested on: MOLT-4
Malme-3M = tested on: Malme-3M
HOP-62 = tested on: HOP-62
CCRF-CEM = tested on: CCRF-CEM
NCI-H522 = tested on: NCI-H522
HL-60 = tested on: HL-60
OVCAR-5 = tested on: OVCAR-5
M14 = tested on: M14
EKVX = tested on: EKVX
SF-539 = tested on: SF-539

Q: Which results are given for `COc1cc(OC)cc(-n2c(N)c(C#N)c3ccc([N+](=O)[O-])cc3c2=O)c1`?
A: GI50 (SN12C): 20.4 µM (inactive); GI50 (HCC 2998): 84.1 µM (inactive); GI50 (T47D): 33.7 µM (inactive); GI50 (K562): 22.6 µM (inactive); GI50 (SR): 14.2 µM (inactive); GI50 (NCI-H460): 30.8 µM (inactive); GI50 (A498): 20 µM (inactive); GI50 (TK-10): 34.2 µM (inactive); GI50 (SK-MEL-28): 43.1 µM (inactive); GI50 (U-251): 22.9 µM (inactive); GI50 (OVCAR-4): 16.6 µM (inactive); GI50 (NCI-H23): 36.4 µM (inactive); GI50 (MDA-N): 80 µM (inactive); GI50 (786-0): 19 µM (inactive); GI50 (ACHN): 28.3 µM (inactive); GI50 (RPMI-8226): 85.7 µM (inactive); GI50 (PC-3): 41.3 µM (inactive); GI50 (HCT-15): > 100 µM; GI50 (LOX IMVI): > 100 µM (inactive); GI50 (Hs-578T): 24.2 µM (inactive); GI50 (NCI-H226): 23.9 µM (inactive); GI50 (BT-549): 31.2 µM (inactive); GI50 (HT-29): > 100 µM (inactive); GI50 (NCI/ADR-RES): 41.8 µM (inactive); GI50 (UO-31): 19.5 µM (inactive); GI50 (HCT-116): 93.5 µM (inactive); GI50 (SK-MEL-5): 30.3 µM (inactive); GI50 (A549): 43.4 µM (inactive); GI50 (DU-145): 20.8 µM (inactive); GI50 (SF-268): 32.4 µM (inactive); GI50 (MDA-MB-435): 63.2 µM (inactive); GI50 (SK-MEL-2): 41.2 µM (inactive); GI50 (COLO 205): > 100 µM (inactive); GI50 (SNB-19): 17.5 µM (inactive); GI50 (KM12): > 100 µM (inactive); GI50 (HOP-92): 19.1 µM (inactive); GI50 (UACC-62): 27.3 µM (inactive); GI50 (MDA-MB-231): 37.5 µM (inactive); GI50 (CAKI-1): 30.8 µM (inactive); GI50 (SW-620): > 100 µM (inactive); GI50 (UACC-257): 35 µM (inactive); GI50 (SNB-75): 19.7 µM (inactive); GI50 (OVCAR-8): 18.7 µM (inactive)

Q: For `c1ccc(CNC2CC(NCc3ccccn3)CC(NCc3ccccn3)C2)nc1` (stereo unspecified), which GI50 (SN12C) is on record?
A: 5.97 µM (inactive)

Q: What about the GI50 (HCC 2998) of the same compound?
A: 1.98 µM (inactive)

Q: And the GI50 (T47D)?
A: 4.61 µM (inactive)

Q: And the GI50 (NCI-H460)?
A: 2.6 µM (inactive)

Q: And the GI50 (A498)?
A: 1.82 µM (inactive)

Q: And the GI50 (TK-10)?
A: 4.58 µM (inactive)

Q: And the GI50 (IGROV-1)?
A: 3.21 µM (inactive)

Q: What about the GI50 (SK-MEL-28) of the same compound?
A: 4.75 µM (inactive)

Q: What about the GI50 (SF-295) of the same compound?
A: 4.18 µM (inactive)

Q: And the GI50 (MCF7)?
A: 2.29 µM (inactive)

Q: What about the GI50 (OVCAR-4) of the same compound?
A: 2.88 µM (inactive)

Q: And the GI50 (OVCAR-3)?
A: 3.33 µM (inactive)

Q: And the GI50 (MDA-N)?
A: 3.42 µM (inactive)

Q: What about the GI50 (786-0) of the same compound?
A: 3.02 µM (inactive)

Q: And the GI50 (ACHN)?
A: 12.5 µM (inactive)

Q: And the GI50 (SK-OV-3)?
A: 2.82 µM (inactive)

Q: What about the GI50 (HCT-15) of the same compound?
A: 4.21 µM

Q: What about the GI50 (MOLT-4) of the same compound?
A: 3.96 µM (inactive)

Q: And the GI50 (Hs-578T)?
A: 8.28 µM (inactive)

Q: What about the GI50 (NCI-H226) of the same compound?
A: 2.32 µM (inactive)

Q: And the GI50 (BT-549)?
A: 6.79 µM (inactive)

Q: And the GI50 (UO-31)?
A: 16.7 µM (inactive)

Q: What about the GI50 (HCT-116) of the same compound?
A: 2.23 µM (inactive)

Q: And the GI50 (SK-MEL-5)?
A: 2.25 µM (inactive)

Q: And the GI50 (A549)?
A: 2.61 µM (inactive)

Q: What about the GI50 (DU-145) of the same compound?
A: 3.14 µM (inactive)

Q: What about the GI50 (Malme-3M) of the same compound?
A: 3.56 µM (inactive)

Q: What about the GI50 (SF-268) of the same compound?
A: 4.53 µM (inactive)

Q: What about the GI50 (MDA-MB-435) of the same compound?
A: 3.28 µM (inactive)

Q: What about the GI50 (HOP-62) of the same compound?
A: 5.47 µM (inactive)

Q: What about the GI50 (SK-MEL-2) of the same compound?
A: 2.58 µM (inactive)

Q: What about the GI50 (COLO 205) of the same compound?
A: 1.81 µM (inactive)

Q: And the GI50 (CCRF-CEM)?
A: 2.92 µM (inactive)

Q: And the GI50 (KM12)?
A: 1.73 µM (inactive)

Q: What about the GI50 (HOP-92) of the same compound?
A: 3.24 µM (inactive)

Q: What about the GI50 (SW-620) of the same compound?
A: 4.11 µM (inactive)

Q: And the GI50 (UACC-257)?
A: 6.65 µM (inactive)

Q: And the GI50 (SNB-75)?
A: 2.97 µM (inactive)

Q: What about the GI50 (NCI-H522) of the same compound?
A: 2.62 µM (inactive)

Q: What does the source list for `Cc1cnc2c(c1)C(=O)N(c1ccc(Br)cc1)S2(=O)=O`?
A: GI50 (SN12C): > 100 µM (inactive); GI50 (HCC 2998): > 100 µM (inactive); GI50 (T47D): > 100 µM (inactive); GI50 (NCI-H460): > 100 µM (inactive); GI50 (TK-10): > 100 µM (inactive); GI50 (IGROV-1): 56.1 µM (inactive); GI50 (SK-MEL-28): > 100 µM (inactive); GI50 (HL-60): 30.1 µM (inactive); GI50 (SF-295): > 100 µM (inactive); GI50 (MCF7): > 100 µM (inactive); GI50 (U-251): > 100 µM (inactive); GI50 (OVCAR-4): 44.4 µM (inactive); GI50 (OVCAR-3): > 100 µM (inactive); GI50 (NCI-H23): > 100 µM (inactive); GI50 (MDA-N): > 100 µM (inactive); GI50 (786-0): > 100 µM (inactive); GI50 (OVCAR-5): > 100 µM (inactive); GI50 (ACHN): > 100 µM (inactive); GI50 (SK-OV-3): > 100 µM (inactive); GI50 (RPMI-8226): > 100 µM (inactive); GI50 (PC-3): > 100 µM (inactive); GI50 (HCT-15): > 100 µM; GI50 (LOX IMVI): > 100 µM (inactive); GI50 (MOLT-4): > 100 µM (inactive); GI50 (Hs-578T): 24.5 µM (inactive); GI50 (NCI-H226): 78 µM (inactive); GI50 (BT-549): > 100 µM (inactive); GI50 (HT-29): > 100 µM (inactive); GI50 (NCI/ADR-RES): > 100 µM (inactive); GI50 (UO-31): > 100 µM (inactive); GI50 (HCT-116): > 100 µM (inactive); GI50 (SK-MEL-5): > 100 µM (inactive); GI50 (A549): > 100 µM (inactive); GI50 (DU-145): > 100 µM (inactive); GI50 (Malme-3M): 35.6 µM (inactive); GI50 (M14): > 100 µM (inactive); GI50 (SF-268): 78.5 µM (inactive); GI50 (MDA-MB-435): > 100 µM (inactive); GI50 (HOP-62): 50.5 µM (inactive); GI50 (EKVX): 35.6 µM (inactive); GI50 (SF-539): > 100 µM (inactive); GI50 (SK-MEL-2): > 100 µM (inactive); GI50 (COLO 205): > 100 µM (inactive); GI50 (CCRF-CEM): > 100 µM (inactive); GI50 (SNB-19): > 100 µM (inactive); GI50 (KM12): > 100 µM (inactive); GI50 (UACC-62): > 100 µM (inactive); GI50 (MDA-MB-231): > 100 µM (inactive); GI50 (CAKI-1): > 100 µM (inactive); GI50 (SW-620): > 100 µM (inactive); GI50 (UACC-257): > 100 µM (inactive); GI50 (SNB-75): 37.3 µM (inactive); GI50 (NCI-H522): 19.5 µM (inactive); GI50 (OVCAR-8): > 100 µM (inactive)
